Reference: patent publication US20250152585A1, “PHARMACEUTICAL COMPOUND” (Duke Street Bio Limited, priority 2022, published 2025)
Read-outs that look alike come from different tables or passages of the source.

Tests used:
[1] = target: T1, N-terminally FLAG-tagged PARP2 (amino acids 1-583) (Homo sapiens, UniProt Q9UGN5); test: PARP2 probe displacement HTRF assay; type: binding; settings: binned Kd
T1 construct: N-terminally FLAG-tagged PARP2 (amino acids 1-583)
Procedure: Data analysis was performed identical as for PARP1.

[2] = target: T2, full length N-terminally FLAG-tagged PARP1 (Homo sapiens, UniProt P09874); test: PARP1 probe displacement HTRF assay; settings: for Selectivity: PARP1 over PARP2, ratio Kd (PARP2)/Kd (PARP1); for Kd: binned Kd
T2 sequence (P09874 whole entry): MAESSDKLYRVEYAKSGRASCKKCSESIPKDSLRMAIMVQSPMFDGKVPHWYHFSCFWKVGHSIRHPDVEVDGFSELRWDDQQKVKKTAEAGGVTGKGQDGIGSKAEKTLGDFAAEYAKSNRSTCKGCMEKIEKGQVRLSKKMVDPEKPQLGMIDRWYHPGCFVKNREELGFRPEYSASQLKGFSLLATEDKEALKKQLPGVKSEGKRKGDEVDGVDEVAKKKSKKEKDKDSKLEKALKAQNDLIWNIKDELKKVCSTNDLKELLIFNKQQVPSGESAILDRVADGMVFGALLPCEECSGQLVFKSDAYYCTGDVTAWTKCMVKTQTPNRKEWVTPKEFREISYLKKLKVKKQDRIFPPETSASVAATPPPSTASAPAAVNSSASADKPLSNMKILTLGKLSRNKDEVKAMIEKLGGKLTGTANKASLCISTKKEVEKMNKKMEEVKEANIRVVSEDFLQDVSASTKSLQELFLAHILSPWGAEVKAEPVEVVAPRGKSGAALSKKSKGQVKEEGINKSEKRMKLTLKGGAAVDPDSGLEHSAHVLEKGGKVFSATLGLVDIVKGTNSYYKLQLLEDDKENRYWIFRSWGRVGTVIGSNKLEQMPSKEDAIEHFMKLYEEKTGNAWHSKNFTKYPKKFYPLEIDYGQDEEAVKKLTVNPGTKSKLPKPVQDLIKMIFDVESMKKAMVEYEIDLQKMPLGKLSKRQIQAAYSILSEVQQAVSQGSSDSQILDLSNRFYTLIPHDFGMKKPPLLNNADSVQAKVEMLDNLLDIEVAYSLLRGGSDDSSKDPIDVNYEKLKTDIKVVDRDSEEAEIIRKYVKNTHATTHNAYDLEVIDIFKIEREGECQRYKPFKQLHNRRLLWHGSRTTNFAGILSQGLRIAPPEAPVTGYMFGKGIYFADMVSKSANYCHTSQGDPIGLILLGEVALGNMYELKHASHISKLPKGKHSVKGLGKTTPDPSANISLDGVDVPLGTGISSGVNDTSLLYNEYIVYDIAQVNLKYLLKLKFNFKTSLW

[3] = target: T2, full length N-terminally FLAG-tagged PARP1; test: PARP1 biochemical DELFIA assay (auto-PARylation); set-up: recombinant full length human N-terminally FLAG-tagged PARP1
[4] = read-out: PARP1 HTRF, probe displacement HTRF
[5] = binned IC50, biochemical auto-PARylation assay
[6] = PARP1 HTRF, probe displacement HTRF
[7] = read-out: PARP1 HTRF, PARP1 probe displacement HTRF
[8] = binned IC50, PARP1 biochemical DELFIA assay

T1 sequence (Q9UGN5 whole entry, the tested form may be a part): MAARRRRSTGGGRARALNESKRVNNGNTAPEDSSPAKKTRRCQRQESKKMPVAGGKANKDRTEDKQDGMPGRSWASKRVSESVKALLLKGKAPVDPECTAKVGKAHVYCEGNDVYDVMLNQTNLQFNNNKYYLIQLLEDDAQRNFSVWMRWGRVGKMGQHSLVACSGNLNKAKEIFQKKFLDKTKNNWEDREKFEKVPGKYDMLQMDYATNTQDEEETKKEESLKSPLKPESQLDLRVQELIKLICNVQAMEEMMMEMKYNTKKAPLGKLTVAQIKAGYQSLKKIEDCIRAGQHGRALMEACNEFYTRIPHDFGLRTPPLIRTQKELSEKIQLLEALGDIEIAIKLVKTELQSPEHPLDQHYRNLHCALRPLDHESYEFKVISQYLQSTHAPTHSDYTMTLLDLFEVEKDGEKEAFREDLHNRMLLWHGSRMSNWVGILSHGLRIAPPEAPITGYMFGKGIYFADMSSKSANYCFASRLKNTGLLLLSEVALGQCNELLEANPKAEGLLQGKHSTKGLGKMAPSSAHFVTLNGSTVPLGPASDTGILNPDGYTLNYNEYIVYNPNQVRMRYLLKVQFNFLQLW

| SMILES | Kd ([1]; probe displacement HTRF) [nM] | Kd [2, 4] [nM] | IC50 [3, 5] [nM] | Kd [2, 6] [nM] | Kd ([1]; PARP2 probe displacement HTRF) [nM] | Kd [2, 7] [nM] | IC50 [3, 8] [nM] | Selectivity ([2]; probe displacement HTRF) |
| --- | --- | --- | --- | --- | --- | --- | --- | --- |
| CNC(=O)c1ncc(N2CCC(N3CCC(c4cc5ccc(F)cc5c(=O)[nH]4)C3)CC2)cc1F (single isomer, unassigned) [Compound 395a] | 100 to 1000 | < 10 | < 10 |  |  |  |  | + (+ indicates a value of 10 to less than 50) |
| CNC(=O)c1ccc(N2CCC(N3CC(c4cc5cccc(F)c5c(=O)[nH]4)C(F)(F)C3)CC2)cn1 (racemic) [Compound 393rac, 5-(4-(3,3-difluoro-4-(8-fluoro-1-oxo-1,2-dihydroisoquinolin-3-yl)pyrrolidin-1-yl)piperidin-1-yl)-N-methylpicolinamide] | 1000 to 10000 |  | < 10 | < 10 |  |  |  | +++ (+++ indicate a value of at least 100) |
| N#Cc1ccc(N2CCC(N3CCCC(c4nc5ccccc5c(=O)[nH]4)C3)CC2)cn1 (single isomer, unassigned) [Compound 70b] |  |  |  |  | 100 to 1000 | 100 to 1000 | 10 to 100 | − (− indicates a value of less than 10) |
| O=c1[nH]c(C2CCN(C3CCN(c4ccc(-c5nnn[nH]5)nc4)CC3)C2)nc2ccccc12 (racemic) [Compound 263rac] | 100 to 1000 | 100 to 1000 | 10 to 100 |  |  |  |  | − (− indicates a value of less than 10) |
| O=c1[nH]c(C2CCN(C3CCN(c4nccs4)CC3)C2)cc2ccccc12 (racemic) [Compound 254rac] | 1000 to 10000 | 100 to 1000 | 10 to 100 |  |  |  |  | + (+ indicates a value of 10 to less than 50) |
| CC(=O)Nc1ccc(N2CCC(N3CCC(c4nc5ccccc5c(=O)[nH]4)C3)CC2)cn1 (single isomer, unassigned) [Compound 262b] | 1000 to 10000 | 100 to 1000 | 100 to 1000 |  |  |  |  | + (+ indicates a value of 10 to less than 50) |
| CC(=O)Nc1ccc(N2CCC(N3CCC(c4cc5ccccc5c(=O)[nH]4)C3)CC2)cn1 (single isomer, unassigned) [Compound 306a] | 1000 to 10000 | 100 to 1000 | 100 to 1000 |  |  |  |  | + (+ indicates a value of 10 to less than 50) |
| CNC(=O)c1ccc(N2CCC(N3CCOC(c4nc5ccccc5c(=O)[nH]4)C3)CC2)cn1 (single isomer, unassigned) [Compound 58a] |  |  |  |  | > 10000 | < 10 | < 10 | +++ (+++ indicate a value of at least 100) |
| N#Cc1nc(C(=O)NC2CC2)ccc1N1CCC(N2CCC(c3cc4ccc(F)cc4c(=O)[nH]3)C2)CC1 (single isomer, unassigned) [Compound 397b] | 10 to 100 | < 10 | < 10 |  |  |  |  | +++ (+++ indicate a value of at least 100) |
| CCNC(=O)c1ccc(N2CCC(N3CCCC(c4nc5ccccc5c(=O)[nH]4)C3)CC2)cn1 (single isomer, unassigned) [Compound 122a] |  |  |  |  | > 10000 | 10 to 100 | < 10 | +++ (+++ indicate a value of at least 100) |
| CNC(=O)c1ccc(N2CCC(N3CCC(c4cc5cccnc5c(=O)[nH]4)C3)CC2)cn1 (racemic) [Compound 203rac] |  |  |  |  | > 10000 | < 10 | < 10 | +++ (+++ indicate a value of at least 100) |
| CCc1ccc(C2CCN(C3CCN(c4ccc(C(=O)NC5CC5)nc4)CC3)C2)[nH]c1=O (single isomer, unassigned) [Compound 338b] | 1000 to 10000 | 10 to 100 | 10 to 100 |  |  |  |  | ++ (++ indicates a value of 50 to less than 100) |
| CNC(=O)c1ccc(N2CCC(N3CCC(c4[nH]c(=O)c5ccccc5c4Cl)C3)CC2)cn1 (single isomer, unassigned) [Compound 219b] | 100 to 1000 | < 10 | < 10 |  |  |  |  | +++ (+++ indicate a value of at least 100) |
| CNC(=O)c1ccc(N2CCC(N3CCCC(C)(c4nc5ccccc5c(=O)[nH]4)C3)CC2)cn1 (single isomer, unassigned) [Compound 66b] |  |  |  |  | > 10000 | 1000 to 10000 | 1000 to 10000 | − (− indicates a value of less than 10) |
| CNC(=O)c1ccc(N2CCC(N3CCC(c4cnc(C)c(=O)[nH]4)C3)CC2)cn1 (racemic) [Compound 127rac] |  |  |  |  | > 10000 | 10 to 100 | 10 to 100 | +++ (+++ indicate a value of at least 100) |
| CNC(=O)c1ccc(N2CCC(N3CC4(c5nc6cccc(F)c6c(=O)[nH]5)CC3C4)CC2)cn1 [Compound 227] | 100 to 1000 |  | < 10 | < 10 |  |  |  | +++ (+++ indicate a value of at least 100) |
| CNC(=O)c1ccc(N2CCC(N3CCC(c4ccc(CC(F)F)c(=O)[nH]4)C3)CC2)cn1 (racemic) [Compound 391rac] | 1000 to 10000 | < 10 | < 10 |  |  |  |  | +++ (+++ indicate a value of at least 100) |

Further lines, with some results ahead:

| Kd ([1]; probe displacement HTRF) [nM] | Kd [2, 4] [nM] | IC50 [3, 5] [nM] | Kd [2, 6] [nM] | Kd ([1]; PARP2 probe displacement HTRF) [nM] | Kd [2, 7] [nM] | IC50 [3, 8] [nM] | SMILES | Selectivity ([2]; probe displacement HTRF) |
| --- | --- | --- | --- | --- | --- | --- | --- | --- |
| > 10000 | 1000 to 10000 | 1000 to 10000 |  |  |  |  | CNC(=O)c1ccc(N2CCC(N3CCC(c4cnc(CC(F)(F)F)c(=O)[nH]4)C3)CC2)cn1 (single isomer, unassigned) [Compound 287b] | − (− indicates a value of less than 10) |
| 100 to 1000 | < 10 | < 10 |  |  |  |  | CNC(=O)c1ccc(N2CCC(N3CCC(c4cc5ccc(F)cc5c(=O)[nH]4)C3)CC2)c(Cl)n1 (single isomer, unassigned) [Compound 223a] | +++ (+++ indicate a value of at least 100) |
|  |  |  |  | 1000 to 10000 | 10 to 100 | < 10 | CNC(=O)c1ccc(N2CCC(N3CCC(c4nc5ccccc5c(=O)[nH]4)C3)CC2)nc1 (single isomer, unassigned) [Compound 46a] | +++ (+++ indicate a value of at least 100) |
| 100 to 1000 | < 10 | < 10 |  |  |  |  | CNC(=O)c1ncc(N2CCC(N3CCC(c4cc5ccc(F)cc5c(=O)[nH]4)C3)CC2)c(Cl)n1 (racemic) [Compound 400rac] | +++ (+++ indicate a value of at least 100) |
|  |  |  |  | > 10000 | 10 to 100 | 10 to 100 | CNC(=O)c1ccc(N2CCC(N3CCCC(c4ncc(C(F)(F)F)c(=O)[nH]4)C3)CC2)cn1 (single isomer, unassigned) [Compound 73b] | ++ (++ indicates a value of 50 to less than 100) |
| 100 to 1000 | < 10 | < 10 |  |  |  |  | CNC(=O)c1cc(Cl)c(N2CCC(N3CCC(c4cc5cccc(F)c5c(=O)[nH]4)C3)CC2)cn1 (racemic) [Compound 248rac] | +++ (+++ indicate a value of at least 100) |
| 100 to 1000 | < 10 | < 10 |  |  |  |  | CNC(=O)c1ccc(N2CCC(N3CCC(c4cc5c(F)ccc(F)c5c(=O)[nH]4)C3)CC2)c(F)n1 (racemic) [Compound 268rac] | +++ (+++ indicate a value of at least 100) |
| > 10000 | 10 to 100 | 10 to 100 |  |  |  |  | CNC(=O)c1ccc(N2CCC(N3CCC(c4cnc(CC(F)(F)F)c(=O)[nH]4)C3)CC2)cn1 (single isomer, unassigned) [Compound 287a] | ++ (++ indicates a value of 50 to less than 100) |
|  |  |  |  | 1000 to 10000 | < 10 | < 10 | CCc1ccc(C2CCN(C3CCN(c4ccc(C(=O)NC)nc4C(F)F)CC3)C2)[nH]c1=O (single isomer, unassigned) [Compound 164a] | +++ (+++ indicate a value of at least 100) |
| 100 to 1000 | < 10 | < 10 |  |  |  |  | CNC(=O)c1cc(C(F)(F)F)c(N2CCC(N3CCC(c4cc5cccc(F)c5c(=O)[nH]4)C3)CC2)cn1 (single isomer, unassigned) [Compound 308b] | +++ (+++ indicate a value of at least 100) |
|  |  |  |  | 100 to 1000 | < 10 | < 10 | CNC(=O)c1cc(C)c(N2CCC(N3CCC(c4cc5ccccc5c(=O)[nH]4)C3)CC2)cn1 (racemic) [Compound 195rac] | +++ (+++ indicate a value of at least 100) |
| 1000 to 10000 | 100 to 1000 | 100 to 1000 |  |  |  |  | CNC(=O)c1cc(C(F)(F)F)c(N2CCC(N3CCC(c4cc5cccc(F)c5c(=O)[nH]4)C3)CC2)cn1 (single isomer, unassigned) [Compound 308a] | + (+ indicates a value of 10 to less than 50) |
| > 10000 |  | 10 to 100 | < 10 |  |  |  | CCc1cnc(C23CC(C2)N(C2CCN(c4ccc(C(=O)NC)nc4C(F)(F)F)CC2)C3)[nH]c1=O [Compound 310] | +++ (+++ indicate a value of at least 100) |
|  |  |  |  | > 10000 | 1000 to 10000 | 1000 to 10000 | CNC(=O)c1ccc(N2CCC(N3CCC(c4nc5onc(C)c5c(=O)[nH]4)C3)CC2)cn1 (single isomer, unassigned) [Compound 149b] | − (− indicates a value of less than 10) |
| 100 to 1000 | 10 to 100 | 10 to 100 |  |  |  |  | CNC(=O)c1ccc(N2CCC(N3CCC(c4nc5[nH]nc(C(F)(F)F)c5c(=O)[nH]4)C3)CC2)c(F)n1 (single isomer, unassigned) [Compound 267a] | + (+ indicates a value of 10 to less than 50) |
|  |  |  |  | 100 to 1000 | < 10 | < 10 | CNC(=O)c1ccc(N2CCC(N3CCC(c4nc5c(F)cc(F)cc5c(=O)[nH]4)C3)CC2)cn1 (single isomer, unassigned) [Compound 181b] | +++ (+++ indicate a value of at least 100) |
